Consider ten compounds from US20230203060A1 (GENFLEET THERAPEUTICS (SHANGHAI) INC., priority 2020, published 2023).

Assay [1] concerns KRAS G12C mutant NCI-H358 cells. Kind of assay: Cell proliferation inhibition experiment, 3D spheroid, CellTiter-Glo, NCI-H358. In kind it is cell-based, human. Conditions: Homo sapiens, NCI-H358, 120 h, NCI-H358 (KRAS G12C mutant) 3D spheroid, 5 days with compound, CellTiter-Glo; read-out: H358 IC50. The essentials: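 First, H358 (800/well) or A549 (400/well) cells are plated in 2% FBS medium and left overnight to form spheroids. Next, compound is added as a 3.16-fold gradient at 0.1% DMSO for 5 days. Finally, CellTiter-Glo signal is read and IC50 derived by four-parameter fitting.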
On the technique in general: ATP-based viability assays read luminescence as a measure of living cells.

The test system of assay [2] is phosphorylated ERK downstream of KRAS G12C in MIA PaCa2 cells. Kind of assay: Cell p-ERK detection experiment (HTRF) in MIA PaCa2. In kind it is cell-based, human. Conditions: Homo sapiens, MIA PaCa-2, 2 h, MIA PaCa2 cells, 2 hours with compound, Advance ERK phospho-T202/Y204 HTRF kit; read-out: p-ERK IC50. From the text:
Raw materials and instruments: MIA PaCa-2 purchased from ATCC; article number: CRL-1420; batch number: 63143594; DMEM purchased from Gibco; article number: 11995-065; batch number: 2186878; FBS purchased from Gibco; article number: 10099-141; batch number: 2109290CP; Horse serum purchased from Gibco; article number: 16050-122; batch number: 1818976; Trypsin-EDTA purchased from Gibco; article number: 25200-072; batch number: 2085552; PS purchased from Gibco; article number: 15140-122; batch number: 2145451; DMSO purchased from VWR AMRESCO; article number: 0231-500ML; batch number: 0457C072; 96-well cell culture plate purchased from Corning; article number: 3599; batch number: 22718601; white opaque 96-well plate purchased from Cisbio; article number: 66PL96025; batch number: N°05; Advance ERK phospho-T202/Y204 kit purchased from Cisbio; article number: 64AERPEH; batch number: 11D; microplate reader purchased from PerkinElmer; model: Envision MLD2105-0020; equipment number 1050369.
MIA PaCa2 was a KRAS G12C mutant human pancreatic cancer cell line cultured in 10% FBS+2.5% Horse serum DMEM culture medium. Cells at logarithmic growth stage were taken, digested with trypsin-EDTA, then collected and counted, and 2.5E4 cells were inoculated in a 96-well cell culture plate and cultured overnight. A 3.16-fold gradient concentration stock solution of 1000× compound was prepared with DMSO, and diluted 200-fold to 5× compound stock solution with culture medium. On the second day after cell inoculation, 5× compound stock solution was added to each cell culture well, with a final concentration of 1× and a DMSO content of 0.1%. DMSO was used as experimental control (control). After the compound was added and cultured for two hours, the residual culture medium was removed. 50 μL of cell lysate (from Advance ERK phospho-T202/Y204 kit, the same below) was added to each well, mixed well and incubated for 30 minutes, and then 16 μL of the mixed solution was transferred to a white opaque 96-well plate, and 16 μL of cell lysate was added to the blank wells. After the transfer was completed, 4 μL of p-ERK HTRF antibody (from Advance ERK phospho-T202/Y204 kit) mixture was added to each well, incubated for 4 hours, and the fluorescence value was read with the microplate reader. The inhibition rate of the compound IR (%)=(RLU control -RLU compound)/(RLU control-RLU blank)×100% was calculated. The gradient dilution concentration of the compound and the corresponding cell proliferation inhibition rate were fitted by Prism 8 four-parameter method, and the IC50 value was calculated. The compounds prepared in the above embodiments of the present disclosure have inhibitory activity of 0.0001 μM to 1 μM on the phosphorylated ERK level downstream of the cell channel of KRAS G12C protein mutant; some compounds have inhibitory activity of 0.001 μM to 1 μM or 0.001 μM to 0.5 μM on phosphorylated ERK level downstream of cell channel of KRAS G12C protein mutant.
(In general: Time-resolved FRET reads energy transfer from a long-lived donor to a nearby acceptor.)

The term IC50 denotes the concentration needed to halve the response being measured. Turning to `C=CC(=O)N1CCN2C(=O)c3c(N4CCN(CCOC)C[C@@H]4C)nc(-c4c(O)cccc4F)c(Cl)c3OC[C@H]2C1` [Z257a, (6aR)-8-acryloyl-4-chloro-3-(2-fluoro-6-hydroxyphenyl)-1-((S)-4-(2-methoxyethyl)-2-methylpiperazin-1-yl)-6,6a,7,8,9,10-hexahydro-12H-pyrazino[2,1-c]pyrido[3,4-f][1,4]oxazepin-12-one], the IC50 in assay [1] turned out to be 4 nM; in assay [2], 26 nM.

In the case of `C=CC(=O)N1CCN2C(=O)c3c(N4C[C@@H](CO)CC4(C)C)nc(-c4c(O)cccc4F)c(Cl)c3OC[C@H]2C1` (single isomer, unassigned) [Z240-1], the half-maximal inhibitory concentration (IC50) worked out at 2.5 nM in assay [1] and 19 nM in assay [2].

Take `C=CC(=O)N1CCN2C(=O)c3c(Nc4c(C(C)C)ncnc4C(C)C)nc(-c4c(O)cccc4F)c(Cl)c3OC[C@H]2C1` [Z15, (6aR)-8-acryloyl-4-chloro-1-((4,6-diisopropylpyrimidin-5-yl)amino)-3-(2-fluoro-6-hydroxyphenyl)-6,6a,7,8,9,10-hexahydro-12H-pyrazino[2,1-c]pyrido[3,4-f][1,4]oxazepin-12-one]: the IC50 was 10 nM in assay [1] and 65 nM in assay [2].

With `C=CC(=O)N1CCN2C(=O)c3c(N4CCN(C)[C@H](C)[C@@H]4C)nc(-c4c(O)cccc4F)c(Cl)c3OC[C@H]2C1` (single isomer, unassigned) [Z308a-1], the results for the IC50 in assay [1] and in assay [2] were 7.1 nM and 71 nM, respectively.

For the compound `C=CC(=O)N1CCN2C(=O)c3c(N4CCN(C)C[C@@H]4C)nc(-c4nc(N)cc(C)c4C(F)(F)F)c(Cl)c3OC[C@H]2C1` [Z328-1, (R)-8-acryloyl-3-(6-amino-4-methyl-3-(trifluoromethyl)pyridin-2-yl)-4-chloro-1-((S)-2,4-dimethylpiperazin-1-yl)-6,6a,7,8,9,10-hexahydro-12H-pyrazino[2,1-c]pyrido[3,4-f][1,4]oxazepin-12-one], the IC50 came to 2.2 nM in assay [1] and 15 nM in assay [2].

`C=CC(=O)N1CCN2C(=O)c3c(N4CC[C@H](OC)[C@@H]4C)nc(-c4c(O)cccc4F)c(Cl)c3OC[C@H]2C1` [Z347-1, (6aR)-8-acryloyl-4-chloro-3-(2-fluoro-6-hydroxyphenyl)-1-((2S,3S)-3-methoxy-2-methylpyrrolidin-1-yl)-6,6a,7,8,9,10-hexahydro-12H-pyrazino[2,1-c]pyrido[3,4-f][1,4]oxazepin-12-one]: the IC50 in assay [1] turned out to be 2.1 nM; in assay [2], 11 nM.

Consider `C=CC(=O)N1CCN2C(=O)c3c(N4C[C@H](N(C)CCOC)CC4(C)C)nc(-c4c(O)cccc4F)c(Cl)c3OC[C@H]2C1` (single isomer, unassigned) [Z296-2], for which the IC50 in assay [1] was 2.4 nM; in assay [2], 32 nM.

For the compound `C=CC(=O)N1CCN2C(=O)c3c(N4CCN(C)C(C)C4C)nc(-c4c(O)cccc4F)c(Cl)c3OC[C@H]2C1` (stereo partly drawn) [Z369, (6aR)-8-acryloyl-4-chloro-3-(2-fluoro-6-hydroxyphenyl)-1-(2,3,4-trimethylpiperazin-1-yl)-6,6a,7,8,9,10-hexahydro-12H-pyrazino[2,1-c]pyrido[3,4-f][1,4]oxazepin-12-one], the values for the IC50 in assay [1] and in assay [2] were 3.6 nM and 29 nM, respectively.

For `C=CC(=O)N1CCN2C(=O)c3c(N(C)c4c(C(C)C)ncnc4C(C)C)nc(-c4c(O)cccc4F)c(Cl)c3OC[C@H]2C1` [Z20, (6aR)-8-acryloyl-4-chloro-1-((4,6-diisopropylpyrimidin-5-yl)(methyl)amino)-3-(2-fluoro-6-hydroxyphenyl)-6,6a,7,8,9,10-hexahydro-12H-pyrazino[2,1-c]pyrido[3,4-f][1,4]oxazepin-12-one], the IC50 came out at 4 nM in assay [1] and 86 nM in assay [2].

Take `C=CC(=O)N1CCN2C(=O)c3c(N4C[C@](C)(O)CC4(C)C)nc(-c4c(O)cccc4F)c(Cl)c3OC[C@H]2C1` (single isomer, unassigned) [Z243-2]: the IC50 was found to be 11.1 nM in assay [1] and 108 nM in assay [2].
